Source: publication PMC3942886 (Molecular and cellular biochemistry, 2013)

Tested on: hexokinase (from baker's yeast purchased from Sigma)
Experiment: pyruvate kinase/lactate dehydrogenase coupled assay, NADH oxidation
Format: biochemical
Conditions: read-out: Km(glucose); positive control; ATP co-substrate

In the case of `OC[C@H]1OC(O)[C@H](O)[C@@H](O)[C@@H]1O` (stereo partly shown) [glucose], the Km is reported as ~300 µM.
